# Measurements: patent publication US20130344494A1, “MYH10 AS A NEW MARKER OF PATHOLOGIES RESULTING FROM RUNX1 INACTIVATION” (priority 2011, published 2013)
# Legend:
# [1] = test system: CD41+ MK; assay: Ploidy level of CD41+ MK cultured from mouse fetal liver Lin- progenitors; format: cell-based, mice; details: 50 μM blebbistatin, p=0.01, n=3
# Description: Thus, the ploidy level of CD41^+ MK was analyzed directly after dissociation the fetal liver as previously described for bone marrow MK (GILLES et al, Blood, 2009). Briefly, the hematopoietic progenitors (Lineage negative, Lin-, cells) were purified from fetal liver of E13.5 by the kit MILTENYI BIOTEC and were cultivated in serum free medium with TPO and stem cell factor (SCF). Blebbistatin was added in the culture just after the purification and ploidy level of CD41^+ cells was analyzed at day 3 of culture.
# [2] = test system: CD41+/CD42+ MKs; assay: MK ploidy level by flow cytometry after addition of Blebbistatin; format: cell-based; details: added at day 6, 72 h
# Description: To investigate the role of myosin II in MK endomitosis, Blebbistatin was used to inhibit its […] during megakaryocytosis. Blebbistatin is added into MK culture at day 6. The ploidy level of CD41^+/CD42^+ MKs was analyzed by flow cytometry 72 h after addition of Blebbistatin.
# [3] = test system: CD41+ cells (MKs); assay: FRAP of actin-GFP turnover in the contractile ring of MKs; format: cell-based; details: Blebbistatin 12.5 μM
# Description: CD41^+ GFP^+ and CD41^− GFP^+ cells were sorted and the actin turnover was measured in the contractile ring at the end of cytokinesis by FRAP in the dipolar mitosis or endomitosis.
# [4] = test system: H2B-GFP-expressing MKs; assay: Real-time video microscopy of endomitosis in H2B-GFP-expressing MKs; format: cell-based; details: Blebbistatin 25 μM
# Description: To check more precisely how myosin II inhibition affects the endomitosis process, we used real-time video microscopy to monitor endomitosis in H2B-GFP-expressing MKs treated with Blebbistatin (25 μM). Endomitotic MK treated with Blebbistatin or without Blebbistatin were filmed in 3 independent experiments.
structure (smiles),measurement,setting,value
Cc1ccc2c(c1)C(=O)C1(O)CCN(c3ccccc3)C1=N2 (centres unmarked) [Blebbistatin],mean ploidy level,"[1]; myh9−/− mice, without 10.40",14.72
same,mean ploidy level,"[1]; wt control mice, without 10.00N",13.40 N
same,mean ploidy,"[2]; 25 μM Blebbistatin, control 6.47N, n=3, p=0.015",11.27 N
same,mean ploidy,"[2]; 100 μM Blebbistatin, control 6.28N, n=4, p=0.008",12.13 N
same,actin-GFP fluorescence recovery in the contractile ring of MKs,"[3]; control 55.7%±12.8, n=8, p=0.01",42.9%±9.0
same,t1/2 of actin-GFP fluorescence recovery,[3]; n=8,2.94 ± 1.35 s
same,furrow ingression of MKs,[4],almost completely inhibited
same,metaphase-to-anaphase transition,[4],apparently normal
